Measurements: the supplement of paper PMC5579334

How the values were obtained:
[1] = tested on: HSC2; assay: relative IC50 (inflection point of fitted dose-response curve, CellTiter-Glo viability, 72 h; top asymptote may be below 50% inhibition); higher = less potent
Method in brief: (§1)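 MPNST cell lines and primary human Schwann cells were seeded at 750–1000 cells per well into 384-well plates preprinted with each compound at five concentrations in 10-fold steps, then incubated 72 h at 37 °C, 5% CO2. CellTiter-Glo ATP luminescence gave viability, scaled between vehicle and positive-control wells, with duplicates averaged where present. Curves were fitted with a four-parameter logistic model. Percent inhibition refers to the top concentration, while drug sensitivity score and relative IC50, censored at the top concentration, come from these fits.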

[2] = tested on: S462; assay: as above
Method in brief: as §1

[3] = tested on: HS-PSS; assay: as above
Method in brief: as §1

[4] = tested on: YST-1; assay: as above
Method in brief: as §1

[5] = tested on: STS26T; assay: as above
Method in brief: as §1

[6] = tested on: S1507-2; assay: as above
Method in brief: as §1

[7] = tested on: ST8814; assay: as above
Method in brief: as §1

[8] = tested on: HSC1; assay: as above
Method in brief: as §1

[9] = tested on: HS-Sch-2; assay: as above
Method in brief: as §1

[10] = tested on: HSC2; assay: relative IC50 (inflection point of fitted dose-response curve, CellTox-Green cytotoxicity, 72 h; top asymptote may be below 50%); higher = less potent
Method in brief: (§2)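 For 72 h at 37 °C, MPNST cell lines and primary human Schwann cells were exposed in 384-well plates to five 10-fold compound dilutions. CellTox-Green, added before seeding at a final 1:1000 dilution, gave fluorescence from DNA released by disrupted cells. Signals were scaled to vehicle and positive-control wells, cultures failing plate quality control were left out, and four-parameter logistic fits were applied. Relative IC50 and drug sensitivity score were derived from the fits, with IC50 censored at the top concentration.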

[11] = tested on: STS26T; assay: as above
Method in brief: as §2

[12] = tested on: S1507-2; assay: as above
Method in brief: as §2

[13] = tested on: ST8814; assay: as above
Method in brief: as §2

[14] = tested on: HSC1; assay: as above
Method in brief: as §2

[15] = tested on: HS-PSS; assay: as above
Method in brief: as §2

Compound | relative IC50 [1] [µM] | relative IC50 [2] [µM] | relative IC50 [3] [µM] | relative IC50 [4] [µM] | relative IC50 [5] [µM] | relative IC50 [6] [µM] | relative IC50 [7] [µM] | relative IC50 [8] [µM] | relative IC50 [9] [µM] | relative IC50 [10] [µM] | relative IC50 [11] [µM] | relative IC50 [12] [µM] | relative IC50 [13] [µM] | relative IC50 [14] [µM] | relative IC50 [15] [µM]
Cc1cc(Nc2cc(CN3CCOCC3)c3nc(C)c(Cc4ccc(Cl)cc4F)n3n2)n[nH]1 [Gandotinib] | 1.09 | 0.862 | 1 | 1.17 | 0.718 | 1.2 | 1.73 | 1.27 | 1.55 | 2.25 | 1.71 | 2.4 | 2.77 | 1.99 | –
CC[C@]1(O)C[C@@H]2CN(CCc3c([nH]c4ccccc34)[C@@](C(=O)OC)(c3cc4c(cc3OC)N(C)[C@H]3[C@@](O)(C(=O)OC)[C@H](OC(C)=O)[C@]5(CC)C=CCN6CC[C@]43[C@@H]65)C2)C1 [Vinblastine] | 0.00582 | 0.00313 | 0.0109 | 0.00376 | 0.00286 | 0.0053 | 0.00298 | 0.00683 | 0.00221 | 0.0137 | 0.00201 | 0.00453 | 0.00283 | 0.0319 | –
C=CC(=O)N1CCC[C@@H](n2nc(-c3ccc(Oc4ccccc4)cc3)c3c(N)ncnc32)C1 [Ibrutinib] | > 1 | > 1 | – | > 1 | > 1 | > 1 | > 1 | > 1 | > 1 | > 1 | > 1 | > 1 | > 1 | > 1 | > 1
N#Cc1ccc(C(c2ccc(C#N)cc2)n2cncn2)cc1 [Letrozole] | > 10 | > 10 | – | > 10 | > 10 | > 10 | > 10 | > 10 | – | > 10 | > 10 | > 10 | > 10 | > 10 | > 10
Cc1sc2c(c1C)C(c1ccc(Cl)cc1)=N[C@@H](CC(=O)OC(C)(C)C)c1nnc(C)n1-2 [(+)JQ1] | 0.462 | 0.386 | – | – | 0.226 | 0.161 | 0.208 | 0.42 | – | > 10 | > 10 | 0.546 | 0.404 | > 10 | –
OC[C@H]1O[C@@H](n2cnc3c2N=CNC[C@H]3O)C[C@@H]1O [Pentostatin] | > 10 | > 10 | > 10 | – | > 10 | > 10 | > 10 | > 10 | > 10 | > 10 | > 10 | > 10 | > 10 | > 10 | > 10
COC1=C2C[C@@H](C)C[C@H](OC)[C@H](O)[C@@H](C)/C=C(\C)[C@H](OC(N)=O)[C@@H](OC)/C=C\C=C(/C)C(=O)NC(=CC1=O)C2=O [Geldanamycin] | 0.338 | 0.454 | – | – | 0.78 | 1.69 | 0.765 | 0.363 | – | 0.211 | 1.16 | 2.65 | 1.32 | 0.204 | –
CC(C)Cn1cnc2c(N)nc3ccccc3c21 [Imiquimod] | > 2.5 | > 2.5 | – | > 2.5 | > 2.5 | > 2.5 | > 2.5 | > 2.5 | – | > 2.5 | > 2.5 | > 2.5 | > 2.5 | > 2.5 | > 2.5
CNC(=O)c1cc(Oc2ccc(NC(=O)Nc3ccc(Cl)c(C(F)(F)F)c3)cc2)ccn1 [Sorafenib] | > 1 | > 1 | > 1 | – | > 1 | > 1 | > 1 | > 1 | > 1 | > 1 | > 1 | > 1 | > 1 | > 1 | > 1
COc1cc2c(cc1-c1c(C)noc1C)ncc1[nH]c(=O)n([C@H](C)c3ccccn3)c12 [I-BET151] | 1.15 | 1.31 | 1.71 | 1.07 | 1.13 | 1.25 | 0.918 | 0.992 | 1.06 | > 10 | > 10 | 1.4 | 1.24 | – | > 10
O=C(Nc1ccncc1)C(=O)c1cn(Cc2ccc(Cl)cc2)c2ccccc12 [Indibulin] | 0.718 | 0.334 | – | 0.53 | 0.164 | 0.241 | 0.312 | 0.361 | 0.739 | 1.58 | 0.146 | 0.494 | 0.43 | 2 | > 10
CS(=O)(=O)OCCCCOS(C)(=O)=O [Busulfan] | > 100 | > 100 | > 100 | – | > 100 | > 100 | > 100 | > 100 | – | > 100 | > 100 | > 100 | > 100 | > 100 | > 100
S=P(N1CC1)(N1CC1)N1CC1 [Thio-TEPA] | > 50 | > 50 | > 50 | > 50 | > 50 | > 50 | > 50 | > 50 | – | > 50 | > 50 | > 50 | > 50 | > 50 | > 50
